Values joined by “and” are separate entries in the source; they are usually repeats but may differ in a detail not shown here. Equal values may be shown once. “Also recorded” adds a separate entry of the source. Where a name gives a salt, the structure may show the parent alone. Read-outs that look alike come from different tables or passages of the source.
Legend:
[1] = tested on: Human Aortic Endothelial Cells; test: Monocyte binding to human aortic endothelial cells, endothelial cells treated; assay type: cell-based
Description: Lipoxygenases (LO) are metabolic enzymes which catalyze the stereospecific oxygenation of polyunsaturated fatty acids to hydroperoxy fatty acids (Hamberg et al., J. Biol. Chem. 242:5329-5335 (1967)). The physiological function of 12-LO, the mammalian enzyme which catalyzes the oxygenation of arachidonic acid to (S)-12-hydroperoxyeicosatetraenoic acid (12-HPETE) and (S)-12-hydroxyeicosatetraenoic acid (12(S)-HETE), is unclear. 12-LO exists as two isoforms which are the products of different genes, leukocyte-type 12-LO and platelet-type 12-LO, which share 65% homology at the amino acid level (Izumi et al., Proc. Natl. Acad. Sci., USA 87:7477-7481 (1990); Funk et al., Proc. Natl. Acad. Sci. USA 87:5638-5642 (1990)). […] 12(S)-HETE has direct mitogenic and hypertrophic effects in vascular cells. […] In addition, glucose-induced monocyte adhesion was abrogated by the inhibition of 12-LO using both phenidone, a non-specific LO inhibitor, and baicalein, a more specific 12-LO inhibitor. The adhesion caused by 12-LO products appears to be monocyte-specific.

[2] = tested on: Human Aortic Endothelial Cells; test: Monocyte adhesion to human aortic endothelial cells, monocytes treated with 12(S)-HETE; assay type: cell-based; details: monocytes with 10^-9 M 12(S)-HETE, 12 minutes
Description: Neutrophil binding is not increased. […] See Example 10.
Monocytes were incubated with 10^-9 M 12(S)-HETE for 12 minutes at room temperature (RT) or 37° C. or left untreated at room temperature and assayed for monocytes adhesion. Eight fields were counted for each experiment.

[3] = tested on: 12(S)-HETE receptors on the human epidermal cell line SCL-II; details: Arenberger et al. 1993; cited from earlier work
CHO-AT1a cells [4] = test: Growth/mitogenesis of CHO-AT1a cells; assay type: cell-based, Chinese hamster
Description: Partial blockade of 12(S)-HETE mitogensis by the specific angiotensin AT1a receptor antagonist, Losartan, in CHO-AT1a cells. (FIG. 5) CHO-AT1a cells were plated in 12-well dishes (about 5-10,000 cells per well) for 24 hr. in growth medium consisting of HAM's, F12+10% FCS. They were then serum depleted for 72 hours by replacing the medium with HAM's F12+0.1% BSA. This medium was then freshly replaced along with AII or 12-HETE (0.1 μM each) prior to addition of drug to the cells. Losartan was added as a solution in water to the cells 15 min. prior to the addition of AII or 12-HETE. Fresh medium containing the same concentrations of AII or 12(S)-HETE plus Losartan was replaced every 48 hours. At the end of 8 days, the medium was removed, and 1 ml trypsin was added per well followed by 1 ml isoton after 3 min. These trypsinized cells were counted on a Coulter counter. […] 12-HETE binding (FIG. 4).
The three cell lines, CHO-AT1a, CHO-AT1b and mock transfected CHO cells were gifts from Dr. Eric Clauser (Inserm Unit, Paris, France). These cells were plated in 12 well dishes in HAM's F12 medium +10% FCS. After 72 hours serum depletion in HAM's F12+0.05% FCS, the cells were treated with AII or 12(S)-HETE (0.1 μM). Cells counts (after trypsinization) were taken at 48 hour intervals and fresh medium along with AII or 12-HETE added at these 48 hour intervals.

[5] = tested on: 12(S)-HETE receptor (CHO-AT1a cells); test: [3H]12(S)-HETE binding to CHO-AT1a cells; design: species or system Chinese hamster; details: for blockade/displacement of [3H]12(S)-HETE binding: CHO-AT1a cells, 4° C.
Description: Kinetics of [^3 H]12(S)-HETE binding to CHO-AT1a cells. FIGS. 1 and 2 are a competition curves which examine the specificity of [^3 H]12(S)-HETE binding. CHO-AT1a cells were grown to confluence in 24 well tissue culture dishes in HAM's F12 medium containing 10% fetal calf serum. The cells were then rinsed and placed in fresh medium, HAM's F12/HEPES with no other additives (450 µl per well). Serial dilutions of unlabeled 12(S)-HETE or DuP654 were added to the wells. Commercial unlabeled 12(S)-HETE (BioMol Corp.) was dried and reconstituted in ethanol to obtain a stock solution of 5 mM. DuP654 was dissolved in DMSO to get a stock solution of 5 mM. These were then serially diluted and added in a volume of 1 u1 to the wells to obtain the final concentrations indicated. Then [^3 H]12(S)-HETE (10,000 cpm in a volume of 50 µl per well) was added from a stock solution obtained by adding the tracer to the medium. The plates were then incubated at 4° C. with continuous shaking for 2 hr. The cells were then washed 2 times with cold PBS and lysed in 0.3N NaOH (200 u1). Radioactivity in the cell lysates was quantitated in scintillation counter. Affinities and binding constants were obtained using […] computer software (Mlab, Civilized Software Inc., Bethesda, Md.).
Tritrated 12(S)-HETE binding is blocked by unlabeled 12(S)-HETE. DuP654, a 12(S)-HETE receptor antagonist, was shown also to block 12(S)-HETE at a concentration of 0.1 μM in both AT1a Σ and AT1a 27 cell types, two clones of CHO cells which overexpress the AII1a receptor. The cells were grown as described in Example 1.
Blockade of 12(S)-HETE binding by pertussis toxin. Cells were grown as described in Example 1. Prior to addition of drug (12(S)-HETE or DuP654) to the cells, the cultures were preincubated in HAM's F12 medium +0.1% BSA for two hours at 37° C. with or without 100 ng/ml pertussis toxin. Serial dilutions of unlabeled 12(S)-HETE or DuP654 were added, followed by [^3 H]12(S)-HETE as described for Example 1. After incubation and washing, radioactivity in the cell lysates was quantitated. As discussed above, pertussis toxin could also ablate 12(S)-HETE-induced mitogenic effects. This implicates the involvement of a Gi -protein-coupled receptor.

PAK [6] = test: PAK activity in CHO-AT1a cells; assay type: cell-based, Chinese hamster; details: 10^-7 M 12(S)-HETE, 10 minutes
Description: CHO-AT1a cells were gently washed and placed in depletion medium (HAM's F-12 medium containing 1 mg.backslash.ml BSA and 20 mM HEPES, ph 7.4) for 72 hours prior to use. After incubation for 30 minutes, the cells were treated with 10^-7 M 12(S)-HETE or with ethanol. The 12(S)-HETE treatment was terminated by washing twice with PBS and adding 300 μl lysis buffer (50 mM HEPES. pH 7.5, containing 150 mM NaCl, 5 mM MgCl2, 1 mM EGTA, 50 mM NaF, 10 mM sodium pyrophosphate, 1% NP-40, 2.5% glycerol and 1 mM Na3 VO4 containing the protease inhibitors phenylmethylsulfonyl fluoride, leupeptin, and aprotonin) followed by sedimentation at 14,000× g at 4° C. for ten minutes. Protein determination was performed by the Bradford method. […] PAK activity was measured as follows. […] ATP, the kinase activity was measured in 60 μl kinase buffer. […] Results are expressed as stimulation over control.
For the PBD-transfected group, CHO-AT1a cells were transiently transfected with 15 μg PBD plasmid. […] The bottom panel illustrates the densitometric quantification. […] Results are expressed as stimulation over control. The PAK activity was measured as described in Example 7.
Cells were pretreated with different concentrations of the PI-3 kinase inhibitor, LY294002 or DMSO (control) for 30 minutes, then treated with 10^-7 M 12(S)-HETE or ethanol (control) for 10 minutes. PAK activity was measured as described in Example 7.

[7] = tested on: AII-induced proliferation; details: cited from earlier work
CHO-AT1a cells [8] = details: cited from earlier work; for inhibition of 12(S)-HETE-induced mitogenic effects (pertussis toxin): pretreatment of cells
PAK [9] = details: cited from earlier work
12-LO [10] = details: Scheidegger et al. 1997; cited from earlier work
12-LO [11] = details: cited from earlier work
[12] = tested on: c-jun amino terminal kinase (JNK); details: cited from earlier work
CHO-AT1a cells [13] = details: cited from earlier work
[14] = HAEC incubated four hours with 12(S)-HETE, 240 min

Compound: CCCCC/C=C\C[C@H](O)/C=C/C=C\C/C=C\CCCC(=O)O [12(S)-HETE, (S)-12-hydroxyeicosatetraenoic acid]
- average increase in monocyte binding as compared to untreated cells [1, 14]: 3 fold
- range of increase in monocyte binding as compared to untreated cells [1, 14]: 1.5-5 fold
- Monocyte Adhesion to Human Aortic Endothelial Cells, 12(S)-HETE (37° C.) ([2]; 37° C., P = 0.01): 39.0 ± 9.3
- Monocyte Adhesion to Human Aortic Endothelial Cells, 12(S)-HETE (RT) ([2]; RT, exp. 1 P = 0.016, exp. 2 P = 0.001): 39.6 ± 12.5 and 45.4 ± 7.6

Compound: Oc1c(Cc2ccccc2)ccc2ccccc12 [DuP654, 2-phenylmethyl-1-naphthol]
- inhibition of 12(S)-HETE binding to SCL-II cells [3]: specifically inhibit
- reduction of 12(S)-HETE-induced cell growth at 0.1 μM (CHO-AT1a cells [4]; 12(S)-HETE-induced, 0.1 μM): significantly reduced
- inhibition of 12(S)-HETE-induced mitogenic effects (CHO-AT1a cells [4]; 12(S)-HETE-induced, CHO-AT1a cells): completely inhibit; also recorded: Complete inhibition
- reduction of AII-induced cell growth at 0.1 μM (CHO-AT1a cells [4]; AII-induced, 0.1 μM): significantly reduced
- blockade of 12(S)-HETE binding at 0.1 μM ([5]; 0.1 μM, AT1a Σ and AT1a 27 clones): block

Compound: O=c1cc(N2CCOCC2)oc2c(-c3ccccc3)cccc12 [LY294002]
- inhibition of 12(S)-HETE-induced PAK activation (PAK [6]): inhibition

Compound: CCCCc1nc(Cl)c(CO)n1Cc1ccc(-c2ccccc2-c2nn[nH]n2)cc1 [Losartan, 2-N-butyl-4-chloro-5-hydroxymethyl-1-[(2'-(1H-tetrazol-5-yl)biphenyl-4-yl)methyl]imidazole, potassium salt]
- inhibition of 12(S)-HETE-induced mitogenic effects (CHO-AT1a cells [4]; 12(S)-HETE-induced, CHO-AT1a cells, potassium salt): partially blocked
- inhibition of AII-induced proliferative effects (CHO-AT1a cells [4]; AII-induced, CHO-AT1a cells, potassium salt): fully inhibiting; also recorded: fully blocked
- blockade/displacement of [3H]12(S)-HETE binding ([5]; potassium salt): partially blocked

Compound: O=c1cc(-c2ccccc2)oc2cc(O)c(O)c(O)c12 [baicalein]
- inhibition of proliferative effects of AII [7]: inhibited
- inhibition of AII proliferative effects (CHO-AT1a cells [8]; AII-induced, CHO-AT1a cells): inhibited
- inhibition of glucose-induced monocyte adhesion [1]: abrogated

Compound: O=C1CCN(c2ccccc2)N1 [phenidone]
- inhibition of glucose-induced monocyte adhesion [1]: abrogated

Compound: AII: growth factor and potent vasoconstrictor AII
- PAK activation by AII (PAK [9]): activate
- stimulation of 12-LO activity in murine macrophages (12-LO [10]): stimulate
- stimulation of 12-LO activity in smooth muscle cells (12-LO [11]): stimulate
- JNK activation ([12]; Wen et al. 1997): activate
- mitogenic effects in CHO-AT1a cells (CHO-AT1a cells [8]; Wen et al. 1996): sustained increase in DNA synthesis as well as cell number

Compound: AII: growth factor and potent vasoconstrictor AII (DRVYIHPF; Angiotensin-2; UniProt P01019 25-32, looked up)
- increase in 12(S)-HETE formation (CHO-AT1a cells [13]): 2 fold
- increase in cell proliferation (CHO-AT1a cells [8]; CHO-AT1a cells, 0.1 µM): 2 fold

Compound: pertussis toxin
- blockade of JNK activation by 12(S)-HETE ([12]; 12(S)-HETE-induced): block
- inhibition of 12(S)-HETE-induced mitogenic effects (pertussis toxin) (CHO-AT1a cells [8]): completely abrogated; also recorded: ablate
- inhibition of 12(S)-HETE-induced mitogenic effects (pertussis toxin) (CHO-AT1a cells [8]; listed as Pertussis toxin): ablate
- blockade/displacement of [3H]12(S)-HETE binding [5]: Blockade
- blockade/displacement of [3H]12(S)-HETE binding ([5]; listed as Pertussis toxin): blocked
